Experiments:
heroin-induced lethality = test: Protection of mice against acute toxicity (lethality) of a lethal dose of heroin; type: in vivo; conditions: 10 min before heroin 25 mg/kg IV, n=6
Procedure: (§1) All mice were allowed ad libitum access to food and water and maintained on a 12 h light/12 h dark cycle, with the lights on at 8:00 a.m. at a room temperature of 21-22° C. Experiments were performed in a same colony room in accordance with the Guide for the Care and Use of Laboratory Animals as adopted and promulgated by the National Institutes of Health. The animal protocol was approved by the IACUC (Institutional Animal Care and Use Committee) at the University of Kentucky.
Heroin-induced acute toxicity was characterized in this study by the occurrence of death. […] Following the heroin administration, mice were immediately placed in containers for observation. The presence or absence of death was recorded for 6 hours following heroin administration.
(§2) Heroin-induced acute toxicity was characterized by the lethality (occurrence of death). For the protection experiments, a single dose of ethopropazine was administrated (IV) prior to administration of a lethal dose (LD100) of heroin (e.g. 25 mg/kg, IV). At 10 min after IV administration of ethopropazine or saline (negative control), the mice were given a lethal dose (LD100) of heroin. The protection experiments were performed under various dose conditions (n=6 for each scenario).

[1] = test system: heroin-induced hyperactivity; test: Locomotor activity test of heroin-induced hyperactivity; type: in vivo, mice; conditions: 10 mg/kg IV, 10 min prior to heroin 2.5 mg/kg IP; n=8
Procedure: as §1

BChE = BChE (Homo sapiens, UniProt P06276); conditions: read-out: IC50 for BChE; cited from earlier work
[2] = 1 mg/kg IV
Procedure: as §2

BChE, sequence (P06276 29-602): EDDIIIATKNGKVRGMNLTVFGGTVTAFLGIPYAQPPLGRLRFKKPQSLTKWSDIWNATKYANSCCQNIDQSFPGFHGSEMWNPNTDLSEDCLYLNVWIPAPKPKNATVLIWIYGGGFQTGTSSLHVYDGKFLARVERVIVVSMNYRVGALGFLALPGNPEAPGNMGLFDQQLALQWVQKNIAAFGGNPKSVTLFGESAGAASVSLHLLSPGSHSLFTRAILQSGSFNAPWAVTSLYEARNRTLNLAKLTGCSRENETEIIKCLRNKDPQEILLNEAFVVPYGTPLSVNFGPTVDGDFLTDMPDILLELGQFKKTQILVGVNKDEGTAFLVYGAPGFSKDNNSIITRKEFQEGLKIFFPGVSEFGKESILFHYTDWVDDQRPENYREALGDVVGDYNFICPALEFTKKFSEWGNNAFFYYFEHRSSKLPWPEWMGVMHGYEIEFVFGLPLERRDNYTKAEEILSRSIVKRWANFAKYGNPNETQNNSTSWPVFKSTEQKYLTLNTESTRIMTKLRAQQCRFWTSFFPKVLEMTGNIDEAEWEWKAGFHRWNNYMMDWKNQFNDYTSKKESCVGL

Row | SMILES | protection against heroin-induced lethality (heroin-induced lethality; ethopropazine 1 mg/kg IV) | protection against heroin-induced lethality (heroin-induced lethality; ethopropazine 10 mg/kg IV) | effect on heroin-induced hyperactivity (total distance traveled) [1] | IC50 (BChE) | protection against heroin-induced lethality (heroin-induced lethality; naltrexone 0.3 mg/kg IV) | adverse effect observed in mice [2]
1 | CCN(CC)C(C)CN1c2ccccc2Sc2ccccc21 (stereo not drawn) [ethopropazine] | partial protection | protected all mice | significantly attenuated heroin-induced hyperactivity | 210 to 300 nM |  | 
2 | O=C1CC[C@@]2(O)[C@H]3Cc4ccc(O)c5c4[C@@]2(CCN3CC2CC2)[C@H]1O5 [naltrexone] |  |  |  |  | partial protection | not able to stand and could hardly move at all

Source: US11123341B2, “Butyrylcholinesterase inhibitors for treatment of opioid use disorder” (priority 2019, dated 2021)
